Measured values reported in EP4682145A1, “BENZOHETEROCYCLIC COMPOUND, AND PREPARATION METHOD THEREFOR AND USE THEREOF” (Cascade Pharmaceuticals, Inc., priority 2023, dated 2024).

Experiments:
[1] = system: normal male C57BL6/J mice; assay: In vivo hypoglycemia risk assay in fasted normal C57BL6/J mice; details: for Blood Glucose / AUC 0-120 minutes: fasted 16 hours; for AUC 0-120 minutes: blood glucose AUC
Method: The blank control group was orally administered with the vehicle control (2% DMO + 15% solutol + 83% DDW solution), with a dosing volume of 10 mL/kg. […] […] Data were expressed as mean ± standard deviation. One-way ANOVA was employed for statistical analysis, with p < 0.05 considered statistically significant.

human FFAR1 (GPR40) = target: T1, human FFAR1 (GPR40) (Homo sapiens, UniProt O14842); assay: NFAT-RE-based reporter gene activity assay (Dual-Glo luciferase) for GPR40 agonistic activity in co-transfected HEK293T cells; format: cell-based; details: 4-hour treatment
T1 construct: Flag; expressed in transfected cells; host or cells: HEK293T
Method in brief: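 Agonism read as NFAT-RE-driven firefly luciferase over Renilla control (Dual-Glo) after 4 h compound exposure, top concentration 1 µM, 10 half-log steps.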

T1 sequence (O14842 whole entry): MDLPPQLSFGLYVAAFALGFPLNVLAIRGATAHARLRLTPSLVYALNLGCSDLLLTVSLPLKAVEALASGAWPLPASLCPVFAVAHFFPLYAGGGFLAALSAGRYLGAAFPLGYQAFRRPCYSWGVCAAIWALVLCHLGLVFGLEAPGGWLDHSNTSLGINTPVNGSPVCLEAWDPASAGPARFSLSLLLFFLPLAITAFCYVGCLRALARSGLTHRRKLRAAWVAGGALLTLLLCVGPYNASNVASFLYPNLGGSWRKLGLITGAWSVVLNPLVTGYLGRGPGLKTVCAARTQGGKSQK

For COc1ccc(F)c(N2CCC(c3oc4cc([C@@H](CC(=O)O)C5CC5)ccc4c3-c3ccc(C(C)(C)C)cc3)CC2)c1 [Compound 169], the “Blood Glucose” value ([1]; 3 mg/kg oral, 0 minutes after administration) was 4.3 ± 0.59 mmol/L, the “Blood Glucose” value ([1]; 3 mg/kg oral, 30 minutes after administration) was 5.42 ± 0.56 mmol/L and the “Blood Glucose” value ([1]; 3 mg/kg oral, 60 minutes after administration) was 4.73 ± 0.82 mmol/L. The “Blood Glucose” value ([1]; 3 mg/kg oral, 120 minutes after administration) was 4.1 ± 0.51 mmol/L, the “Blood Glucose” value ([1]; 10 mg/kg oral, 0 minutes after administration) was 4.65 ± 0.75 mmol/L and the “Blood Glucose” value ([1]; 10 mg/kg oral, 30 minutes after administration) was 6.1 ± 1.01 mmol/L. For the same compound, the “Blood Glucose” value ([1]; 10 mg/kg oral, 60 minutes after administration) was 4.92 ± 1.01 mmol/L, the “Blood Glucose” value ([1]; 10 mg/kg oral, 120 minutes after administration) was 4 ± 0.87 mmol/L and the “AUC 0-120 minutes” value ([1]; 3 mg/kg oral) was 563 ± 34.91 mmol·min. The “AUC 0-120 minutes” value ([1]; 10 mg/kg oral) was 594 ± 49.00 mmol·min, the risk of hypoglycemia ([1]; judged from AUC0-120 min versus blank control, Glibenclamide 10 mg/kg, compound 169 at 3 mg/kg and 10 mg/kg) was “no risk of hypoglycemia” and the EC50 (human FFAR1 (GPR40)) was 100 to 500 nM. The “Efficacy (%)” value (human FFAR1 (GPR40); class symbols) was “††† (Efficacy (%) > 150)”.
